Data from article PMC9144915, “Indole Alkaloids and Chromones from the Stem Bark of Cassia alata and Their Antiviral Activities” (Molecules, 2022).
Values after ≈ are worked out from the molar mass of the structure shown. Where two headings read alike, the source gives them in different places.

Key:
[1] = system: tobacco mosaic virus (TMV); assay: Anti-TMV activity, half-leaf method; type: in vivo; details: in Nicotiana glutinosa; for inhibition at 20 µM: read-out: % Inhibition at 20 µM
Method: The anti-TMV activities were tested using the half-leaf method according to our previous studies, and Ningnanmycin (C16H23O8N7, CAS No. 156410-09-2), a commercial cytosine nucleoside peptide type antibiotics for plant disease in China, was used as a positive control. The virus was inhibited by mixing with the solution of tested compounds (20 μM in DMSO). After 30 min, the mixture was inoculated on the left side of the leaves of N. glutinosa, whereas the right side of the leaves was inoculated with the mixture of DMSO solution with the virus as control. The local lesion numbers were recorded 3–4 days after inoculation. Three repetitions were conducted for each compound. The inhibition rates were calculated according to the formula: inhibition rate (%) = [(C − T)/C] × 100%(1) where C is the average number of local lesions of the control and T is the average number of local lesions of the treatment. Ningnanmycin (20 μM in DMSO), a commercial virucide for plant disease in China, was used as a positive control.

[2] = Cytotoxicity in MA-104 cells (MTT); type: cell-based; details: African green monkey
Method: (§1) The anti rotavirus activities were tested according to our previous literature. Human rotavirus Wa group was used to infect the cell culture MA104 in vitro, the 50% cytotoxicity concentration (CC50) and half maximal effective concentration (EC50) were evaluated, and ribavirin (C8H12N4O5, CAS No. […], a broad-spectrum antiviral drug) was used as a positive control. MA-104 cells (1 × 10^5 cells per well) were grown in 96-well plates for 48 h. The media were removed and replaced by new media containing serial dilutions of compounds under test. After incubation for 72 h, the media were discarded, and 5.0 μL of MTT solution was added to each well. Plates were then incubated at 37 °C for 4 h. The solution was removed, and 100 μL of 0.04 mol/L HCl-isopropanol was added to each well to dissolve formazan crystals. Using a microplate reader, the absorbance of each well was measured at 540 nm. After subtracting the background absorbance at 655 nm, the 50% CC50 of each compound was estimated by regression analysis.

[3] = system: Human rotavirus Wa group; assay: Anti-rotavirus assay, prevention of cytopathic effect in MA104 cells (mixed treatment); type: cell-based; details: for EC50: Human rotavirus, MA104, rotavirus 0.01 MOI, MA-104 cells, 72 h, CPE; for TI (CC50/EC50): therapeutic index
Method: In order to study whether the chromones and indole alkaloids from the stem bark of C. alata had more broad antiviral activities, compounds 1–5 were also tested for their anti-rotavirus activity. Their ability to prevent the cytopathic effects of rotavirus in MA104 cells was tested according to our previous literatures, and their effects were measured in parallel with the determination of antiviral activity using ribavirin as a positive control.
as §1
In the mixed treatment assay, each compound was mixed with a 0.01 multiplicity of infection (MOI) of the rotaviruses at various concentrations (1–160 μg/mL) and incubated at 4 °C for 1 h. The mixtures were inoculated in triplicates onto near confluent MA-104 cell monolayers (1 × 10^5 cells per well) for 1 h with occasional rocking. The solution was removed, and the cells were replaced with eagles minimum essential medium (EMEM) containing 1 μg/mL trypsin. […] EC50 was estimated by regression analysis.

[4] = system: TMV; assay: Protective effect on TMV (pretreatment of tobacco plant before inoculation); type: in vivo; details: Tobacco mosaic virus; tobacco plant pretreated with 20 μM solution for 6 h before inoculation with TMV; read-out: protective effect inhibition rate
Method: For compounds with significant activities in half-leaf method assays, their protective effects on TMV were also evaluated by pretreating a tobacco plant with 20 μM solutions of compounds in DMSO, or a solution of DMSO for 6 h before inoculation with TMV.

Work on `COc1cc(C)cc2c1CN(C)C2=O` [Compound 1, 4-Methoxy-2,6-dimethylisoindolin-1-one] yielded an IC50 [1] of 55.3 µM, an inhibition at 20 µM [1] of 26.5 ± 2.8% and a CC50 at 72 h [2] of 142 µg/mL (≈ 745 µM). The EC50 [3] was 14.6 µg/mL (≈ 76.3 µM) and the “TI (CC50/EC50)” value [3] was 9.75.

`COc1cc(CO)cc2c1CN(C)C2=O` [Compound 2, 6-(Hydroxymethyl)-4-methoxy-2-methylisoindolin-1-one] showed an IC50 [1] of 22.6 µM, an inhibition at 20 µM [1] of 44.4 ± 3.5% and an inhibition at 20 µM [4] of 40.8%. For the same compound, the CC50 at 72 h [2] was 175 µg/mL (≈ 845 µM), the EC50 [3] was 14.8 µg/mL (≈ 71.4 µM) and the “TI (CC50/EC50)” value [3] was 11.8.

`CC(=O)Cc1c(CO)ccc2c1OC(C)(C)CC2=O` [Compound 4, 7-(Hydroxymethyl)-2,2-dimethyl-8-(2-oxopropyl)chroman-4-one] showed an IC50 [1] of 17.9 µM, an inhibition at 20 µM [1] of 52.3 ± 3.6% and an inhibition at 20 µM [4] of 49.3%. For the same compound, the CC50 at 72 h [2] was 192 µg/mL (≈ 734 µM), the EC50 [3] was 15.5 µg/mL (≈ 59.1 µM) and the “TI (CC50/EC50)” value [3] was 12.4.

In the case of `COc1cc(C)cc2c1CN(Cc1ccc3c(c1CC(C)=O)OC(C)(C)CC3=O)C2=O` [Compound 5, 2-((3,4-Dihydro-2,2-dimethyl-4-oxo-8-(2-oxopropyl)-2H-chromen-7-yl)methyl)-4-methoxy-6-methyl-isoindolin-1-one], the IC50 [1] is reported as 43.4 µM, the inhibition at 20 µM [1] is reported as 31.8 ± 3.3% and the CC50 at 72 h [2] is reported as 154 µg/mL (≈ 364 µM). The EC50 [3] was 12.8 µg/mL (≈ 30.4 µM) and the “TI (CC50/EC50)” value [3] was 12.0.

In the case of `NC(=O)c1ncn([C@@H]2O[C@H](CO)[C@@H](O)[C@H]2O)n1` [Ribavirin, reference compound], the CC50 at 72 h ([2]; MA-104 cells, 72 h, MTT, read-out: CC50) is reported as 234 µg/mL (≈ 960 µM), the EC50 [3] is reported as 12.2 µg/mL (≈ 50 µM) and the “TI (CC50/EC50)” value [3] is reported as 19.2.

In the case of `CNCC(=O)N[C@@H](CO)C(=O)N[C@H]1[C@H](O)[C@@H](O)[C@H](n2ccc(N)nc2=O)O[C@@H]1C(N)=O` [Ningnanmycin, reference compound], the IC50 [1] is reported as 37.2 µM and the inhibition at 20 µM [1] is reported as 32.8 ± 3%.

In the case of `COc1cc(CCCO)cc2c1CN(C)C2=O` [Compound 3, 6-(3-Hydroxypropyl)-4-methoxy-2-methylisoindolin-1-one], the IC50 [1] is reported as 14.2 µM, the inhibition at 20 µM [1] is reported as 66.5 ± 4% and the inhibition at 20 µM [4] is reported as 68.2%. The CC50 at 72 h [2] was 208 µg/mL (≈ 885 µM), the EC50 [3] was 13.6 µg/mL (≈ 57.8 µM) and the “TI (CC50/EC50)” value [3] was 15.3.
